Test results taken from PMC8364350 (Nature ecology & evolution, 2020).

Experiments:
DrCSAD = biological target: T1, DrCSAD (Danio rerio, UniProt A0A8M1N2X8); test: 1H NMR product quantification, specific activity; type: biochemical; details: 5 min reaction stopped with 1 M HCl, pH 7.0, 25 C; preferred substrate
T1 sequence (A0A8M1N2X8 1-500): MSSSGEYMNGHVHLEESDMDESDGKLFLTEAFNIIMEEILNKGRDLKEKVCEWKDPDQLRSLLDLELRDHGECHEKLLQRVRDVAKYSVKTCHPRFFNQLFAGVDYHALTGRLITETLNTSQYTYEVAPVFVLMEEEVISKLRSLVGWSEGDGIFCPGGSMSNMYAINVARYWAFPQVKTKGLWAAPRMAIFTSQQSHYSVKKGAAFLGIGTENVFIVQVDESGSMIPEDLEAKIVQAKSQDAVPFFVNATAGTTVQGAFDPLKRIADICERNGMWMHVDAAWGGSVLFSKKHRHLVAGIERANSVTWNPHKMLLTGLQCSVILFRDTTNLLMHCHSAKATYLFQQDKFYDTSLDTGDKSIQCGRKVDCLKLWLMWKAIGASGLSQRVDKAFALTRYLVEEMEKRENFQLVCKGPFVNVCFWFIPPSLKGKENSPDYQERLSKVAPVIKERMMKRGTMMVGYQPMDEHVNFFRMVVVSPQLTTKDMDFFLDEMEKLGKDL

HsCSAD = biological target: T2, HsCSAD (Homo sapiens, UniProt Q9Y600); test: 1H NMR product quantification, specific activity; type: biochemical; details: 5 min reaction stopped with 1 M HCl, pH 7.0, 25 C; preferred substrate
T2 sequence (Q9Y600 1-493): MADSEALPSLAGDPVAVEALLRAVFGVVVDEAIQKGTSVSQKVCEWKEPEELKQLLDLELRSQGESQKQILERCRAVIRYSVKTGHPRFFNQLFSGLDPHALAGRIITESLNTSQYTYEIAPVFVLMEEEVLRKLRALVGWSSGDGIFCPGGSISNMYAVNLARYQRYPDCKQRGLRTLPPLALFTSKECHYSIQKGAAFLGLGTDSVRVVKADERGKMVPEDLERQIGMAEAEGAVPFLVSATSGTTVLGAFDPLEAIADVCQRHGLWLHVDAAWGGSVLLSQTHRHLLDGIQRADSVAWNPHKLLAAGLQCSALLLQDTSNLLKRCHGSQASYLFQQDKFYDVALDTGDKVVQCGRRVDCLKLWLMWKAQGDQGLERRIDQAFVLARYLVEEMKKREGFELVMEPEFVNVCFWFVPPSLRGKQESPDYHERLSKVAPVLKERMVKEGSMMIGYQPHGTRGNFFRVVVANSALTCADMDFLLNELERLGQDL

[1] = substrate: N[C@@H](CS(=O)(=O)O)C(=O)O; test: time-resolved 1H NMR, integrated Michaelis-Menten fit of progress curve; type: biochemical, Gallus gallus; details: 50 mM NaH2PO4 pH 7.0, 25 C, H2O:D2O 9:1, example time course

N[C@@H](CS(=O)O)C(=O)O [CSA, cysteine sulfinic acid]
specific activity (DrCSAD): observed the same preference for CSA in a CSAD ortholog of a basal vertebrate | specific activity (HsCSAD): We confirmed the opposite preference for the CSA substrate in human CSAD

B1: GgCAD (Gallus gallus) (protein)
chain: MAEQSDLERPAVDGAAGEEFLRAAFQVLLEEAVRKGTDVAQKVCEWKEPHELRELLDLELRSHGEPAGRLLERCRDIIRYSVKTCHPRFFNQLFSGLDHHALAGRLLTETLNTSQYTYEIAPVFVLMEEVVLAKLRELVGWNSGDGIFCPGGSISNMYAMNVARFQRFPESRQQGSRALPRLVLFASEECHYSIQKGAAFLGIGTDNVVLVRADERGKMIPEELEKEIERVKSEGAVPFFVSATSGTTVLGAFDPLGPVADVCQRHGLWLHVDAAWGGSALLSRKHRQLLAGIERADSVAWNPHKMLTVGLQCSAFLLRDDSGLLQRCHGAGAAYLFQPDKFYDVMFDTGDKTVQCGRRVDCLKLWLLWKAVGSEGLEQRVDRAFACTSYLAAEMKRRDGFQLVLEPEFINLCFWFVPPSLRGQQGCTDFGPRLGKVAPAIKERMMKEGSMMVGYQPHGTRPNFFRQIVTSPAVTRADLDFFLDEIERLGCDL
Km [1]: 6.95 ± 3.23 mM
